Source: patent US11986532B2 (Arvinas Operations, Inc., priority 2021, dated 2024)
Like-named read-outs stand apart in the source and are kept apart here.

Target: T1, BCL6 (Homo sapiens, UniProt P41182)
T1 construct: endogenous in cells; host or cells: T47D breast cancer epithelial cells
Test: Immunofluorescence protocol for high content imaging of BCL6 (degradation) in T47D cells, 3 days compound treatment
Assay type: cell-based
Settings: for DC50: read-out: Mean DC50 (nM)* category; for Dmax: read-out: Mean Dmax (%)** category
Procedure, shortened: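 Cells are seeded to reach ~70-90% confluence at endpoint, then dosed next day with compound at a final top concentration of 0.1 or 1 μM (11 points, 3-fold). After 3 days, BCL6 is detected by immunofluorescence and quantified by high-content imaging.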

[1] = T47D cells, 3 days compound treatment

Row | DC50 [1] [nM] | Dmax [1] [%] | Dmax (T47D) [%] | DC50 [nM] | SMILES
1 | – | – | ≥ 70 | < 10 | CNC(=O)COc1cc2cc(Nc3nc(N4CCC(F)(CN5CCC6(CC5)CN(c5ccc7c(c5)CN(C5CCC(=O)NC5=O)C7=O)C6(C)C)CC4)ncc3Cl)ccc2n(C(C)C)c1=O (centres unmarked) [Compound 382, 2-{[6-({5-chloro-2-[4-({2-[2-(2,6-dioxopiperidin-3-yl)-1-oxo-2,3-dihydro-1H-isoindol-5-yl]-1,1-dimethyl-2,7-diazaspiro[3.5]nonan-7-yl}methyl)-4-fluoropiperidin-1-yl]pyrimidin-4-yl}amino)-2-oxo-1-(propan-2-yl)-1,2-dihydroquinolin-3-yl]oxy}-N-methylacetamide]
2 | – | – | 50 to 70 | < 10 | CNC(=O)COc1cc2cc(Nc3cc(N4CCC(CN5CCC6(CN(c7ccc8c(c7F)CN(C7CCC(=O)NC7=O)C8=O)C6)C(F)(F)C5)CC4)ncc3Cl)ccc2n(C(C)C)c1=O (centres unmarked) [Compound 237, 2-{[6-({5-chloro-2-[4-({2-[2-(2,6-dioxopiperidin-3-yl)-4-fluoro-1-oxo-2,3-dihydro-1H-isoindol-5-yl]-5,5-difluoro-2,7-diazaspiro[3.5]nonan-7-yl}methyl)piperidin-1-yl]pyridin-4-yl}amino)-2-oxo-1-(propan-2-yl)-1,2-dihydroquinolin-3-yl]oxy}-N-methylacetamide]
3 | < 10 | 50 to 70 | – | – | CNC(=O)COc1cc2cc(Nc3nc(N4CCC(O[C@H]5CC[C@H](Oc6cccc7c6C(=O)N(C6CCC(=O)NC6=O)C7=O)CC5)CC4)ncc3Cl)ccc2n(C(C)C)c1=O (some centres unmarked) [Compound 31, 2-[(6-{[5-chloro-2-(4-{[(1r,4r)-4-{[2-(2,6-dioxopiperidin-3-yl)-1,3-dioxo-2,3-dihydro-1H-isoindol-4-yl]oxy}cyclohexyl]oxy}piperidin-1-yl)pyrimidin-4-yl]amino}-2-oxo-1-(propan-2-yl)-1,2-dihydroquinolin-3-yl)oxy]-N-methylacetamide]
4 | < 10 | ≥ 70 | – | – | CNC(=O)COc1cc2cc(Nc3nc(N4CCC(C(C)(C)N5CCC6(CC5)CN(c5cccc7c5C(=O)N(C5CCC(=O)NC5=O)C7=O)C6)CC4)ncc3Cl)ccc2n(C(C)C)c1=O (centres unmarked) [Compound 46, 2-{[6-({5-chloro-2-[4-(2-{2-[2-(2,6-dioxopiperidin-3-yl)-1,3-dioxo-2,3-dihydro-1H-isoindol-4-yl]-2,7-diazaspiro [3.5]nonan-7-yl}propan-2-yl)piperidin-1-yl]pyrimidin-4-yl}amino)-2-oxo-1-(propan-2-yl)-1,2-dihydroquinolin-3-yl]oxy}-N-methylacetamide]
5 | < 10 | 50 to 70 | – | – | CNC(=O)COc1cc2cc(Nc3nc(N4CCC(CN5CCC6(CC5)CN(c5ccc7c(c5)C(=O)N(C5CCC(=O)NC5=O)C7=O)C6)CC4)ncc3Cl)cc(F)c2n(C(C)C)c1=O (centres unmarked) [Compound 111, 2-{[6-({5-chloro-2-[4-({2-[2-(2,6-dioxopiperidin-3-yl)-1,3-dioxo-2,3-dihydro-1H-isoindol-5-yl]-2,7-diazaspiro[3.5]nonan-7-yl}methyl)piperidin-1-yl]pyrimidin-4-yl}amino)-8-fluoro-2-oxo-1-(propan-2-yl)-1,2-dihydroquinolin-3-yl]oxy}-N-methylacetamide]
6 | – | – | 50 to 70 | < 10 | CNC(=O)COc1cc2c(F)c(Nc3cc(N4CCC(F)(CN5CCC6(CC5)CN(c5ccc7c(c5F)CN(C5CCC(=O)NC5=O)C7=O)C6)CC4)ncc3Cl)ccc2n(C(C)C)c1=O (centres unmarked) [Compound 259, 2-{[6-({5-chloro-2-[4-({2-[2-(2,6-dioxopiperidin-3-yl)-4-fluoro-1-oxo-2,3-dihydro-1H-isoindol-5-yl]-2,7-diazaspiro[3.5]nonan-7-yl}methyl)-4-fluoropiperidin-1-yl]pyridin-4-yl}amino)-5-fluoro-2-oxo-1-(propan-2-yl)-1,2-dihydroquinolin-3-yl]oxy}-N-methylacetamide]
7 | < 10 | ≥ 70 | – | – | CNC(=O)COc1cc2cc(Nc3nc(N4CCN(CC5CC6(CCN(c7cccc8c7CN(C7CCC(=O)NC7=O)C8=O)CC6)C5)CC4)ncc3Cl)ccc2n(C(C)C)c1=O (centres unmarked) [Compound 7, 2-{[6-({5-chloro-2-[4-({7-[2-(2,6-dioxopiperidin-3-yl)-1-oxo-2,3-dihydro-1H-isoindol-4-yl]-7-azaspiro[3.5]nonan-2-yl}methyl)piperazin-1-yl]pyrimidin-4-yl}amino)-2-oxo-1-(propan-2-yl)-1,2-dihydroquinolin-3-yl]oxy}-N-methylacetamide]
8 | – | – | ≥ 70 | < 10 | CNC(=O)COc1cc2cc(Nc3nc(N4CCC(CN5CCC6(CN(c7cccc8c7CN(C7CCC(=O)NC7=O)C8=O)C6)C(F)C5)CC4)ncc3Cl)ccc2n(C(C)C)c1=O (centres unmarked) [Compound 326, 2-{[6-({5-chloro-2-[4-({2-[2-(2,6-dioxopiperidin-3-yl)-1-oxo-2,3-dihydro-1H-isoindol-4-yl]-5-fluoro-2,7-diazaspiro[3.5]nonan-7-yl}methyl)piperidin-1-yl]pyrimidin-4-yl}amino)-2-oxo-1-(propan-2-yl)-1,2-dihydroquinolin-3-yl]oxy}-N-methylacetamide]
9 | < 10 | 50 to 70 | – | – | CNC(=O)COc1cc2cc(Nc3nc(N4CCN(CC5CC6(CCN(c7ccc8c(c7)CN(C7CCC(=O)NC7=O)C8=O)CC6)C5)CC4)ncc3Cl)ccc2n(C(C)C)c1=O (centres unmarked) [Compound 6, 2-{[6-({5-chloro-2-[4-({7-[2-(2,6-dioxopiperidin-3-yl)-1-oxo-2,3-dihydro-1H-isoindol-5-yl]-7-azaspiro[3.5]nonan-2-yl}methyl)piperazin-1-yl]pyrimidin-4-yl}amino)-2-oxo-1-(propan-2-yl)-1,2-dihydroquinolin-3-yl]oxy}-N-methylacetamide]
10 | < 10 | ≥ 70 | – | – | CNC(=O)COc1cc2cc(Nc3nc(N4CCC(CN5CC[C@]6(CCN(c7ccc8c(c7)CN([C@@H]7CCC(=O)NC7=O)C8=O)C6)C5)CC4)ncc3Cl)ccc2n(C(C)C)c1=O [Compound 2, 2-[(6-{[5-chloro-2-(4-{[(5S)-7-{2-[(3R)-2,6-dioxopiperidin-3-yl]-1-oxo-2,3-dihydro-1H-isoindol-5-yl}-2,7-diazaspiro[4.4]nonan-2-yl]methyl}piperidin-1-yl)pyrimidin-4-yl]amino}-2-oxo-1-(propan-2-yl)-1,2-dihydroquinolin-3-yl)oxy]-N-methylacetamide]
11 | – | – | 50 to 70 | < 10 | CNC(=O)COc1cc2cc(Nc3nc(N4CCN(CC5CCC6(CC5)CN(c5cc7c(cc5F)C(=O)N(C5CCC(=O)NC5=O)C7)C6)CC4)ncc3Cl)ccc2n(C(C)C)c1=O (centres unmarked) [Compound 306, 2-{[6-({5-chloro-2-[4-({2-[2-(2,6-dioxopiperidin-3-yl)-6-fluoro-1-oxo-2,3-dihydro-1H-isoindol-5-yl]-2-azaspiro[3.5]nonan-7-yl}methyl)piperazin-1-yl]pyrimidin-4-yl}amino)-2-oxo-1-(propan-2-yl)-1,2-dihydroquinolin-3-yl]oxy}-N-methylacetamide]

Row | SMILES | DC50 [1] [nM] | Dmax [1] [%] | Dmax (T47D) [%] | DC50 [nM]
12 | CNC(=O)COc1cc2cc(Nc3nc(N4CCC(O[C@H]5C[C@H](N6CCN(c7ccc8c(n7)CN(C7CCC(=O)NC7=O)C8=O)[C@H](C)C6)C5)CC4)ncc3Cl)ccc2n(C(C)C)c1=O (stereo partly drawn) [Compound 198, 2-({6-[(5-chloro-2-{4-[(1r,3r)-3-[(3R)-4-[6-(2,6-dioxopiperidin-3-yl)-5-oxo-5H,6H,7H-pyrrolo[3,4-b]pyridin-2-yl]-3-methylpiperazin-1-yl]cyclobutoxy]piperidin-1-yl}pyrimidin-4-yl)amino]-2-oxo-1-(propan-2-yl)-1,2-dihydroquinolin-3-yl}oxy)-N-methylacetamide] | < 10 | ≥ 70 | – | –
13 | CNC(=O)COc1cc2cc(Nc3nc(N4CCC(O[C@H]5C[C@H](N6CCC(c7cc(F)c8c(c7OC)CN(C7CCC(=O)NC7=O)C8=O)CC6)C5)CC4)ncc3Cl)ccc2n(C(C)C)c1=O (some centres unmarked) [Compound 128, 2-({6-[(5-chloro-2-{4-[(1r,3r)-3-{4-[2-(2,6-dioxopiperidin-3-yl)-7-fluoro-4-methoxy-1-oxo-2,3-dihydro-1H-isoindol-5-yl]piperidin-1-yl}cyclobutoxy]piperidin-1-yl}pyrimidin-4-yl)amino]-2-oxo-1-(propan-2-yl)-1,2-dihydroquinolin-3-yl}oxy)-N-methylacetamide] | < 10 | 50 to 70 | – | –
14 | CNC(=O)COc1cc2cc(Nc3nc(N4CCC(O[C@H]5C[C@H](N6CC7(CCN7c7cccc8c7CN(C7CCC(=O)NC7=O)C8=O)C6)C5)CC4)ncc3Cl)ccc2n(C(C)C)c1=O (some centres unmarked) [Compound 317, 2-({6-[(5-chloro-2-{4-[(1r,3r)-3-{1-[2-(2,6-dioxopiperidin-3-yl)-1-oxo-2,3-dihydro-1H-isoindol-4-yl]-1,6-diazaspiro[3.3]heptan-6-yl}cyclobutoxy]piperidin-1-yl}pyrimidin-4-yl)amino]-2-oxo-1-(propan-2-yl)-1,2-dihydroquinolin-3-yl}oxy)-N-methylacetamide] | – | – | 50 to 70 | < 10
15 | CCn1c(=O)c(OCC(=O)NC)cc2cc(Nc3nc(N4CCC(O[C@H]5C[C@H](N6CCC(c7cccc8c7C(=O)N(C7CCC(=O)NC7=O)C8=O)CC6)C5)CC4)ncc3Cl)ccc21 (some centres unmarked) [Compound 140, 2-({6-[(5-chloro-2-{4-[(1r,3r)-3-{4-[2-(2,6-dioxopiperidin-3-yl)-1,3-dioxo-2,3-dihydro-1H-isoindol-4-yl]piperidin-1-yl}cyclobutoxy]piperidin-1-yl}pyrimidin-4-yl)amino]-1-ethyl-2-oxo-1,2-dihydroquinolin-3-yl}oxy)-N-methylacetamide] | 50 to 100 | ≥ 70 | – | –
16 | CNC(=O)COc1cc2cc(Nc3nc(N4CCC(O[C@H]5C[C@H](N6CC[C@H](c7ccc8c(c7F)CN([C@H]7CCC(=O)NC7=O)C8=O)C[C@H]6C)C5)CC4)ncc3Cl)ccc2n(C(C)C)c1=O [Compound 295, 2-({6-[(5-chloro-2-{4-[(1r,3r)-3-[(2R,4S)-4-{2-[(3S)-2,6-dioxopiperidin-3-yl]-4-fluoro-1-oxo-2,3-dihydro-1H-isoindol-5-yl}-2-methylpiperidin-1-yl]cyclobutoxy]piperidin-1-yl}pyrimidin-4-yl)amino]-2-oxo-1-(propan-2-yl)-1,2-dihydroquinolin-3-yl}oxy)-N-methylacetamide] | – | – | ≥ 70 | < 10
